Measured values reported in patent publication US11840535B2, “Alkynyl(hetero)aromatic compound for inhibiting protein kinase activity” (Shenzhen TargetRx, Inc., priority 2018, dated 2023).

Experiments:
ABL = ABL (Homo sapiens (Human), UniProt P00519); test: Biochemical kinase analysis, ABL
Method: (§1) Reagents and materials: ABL (ThermoFisher, Cat. No PV3585), ABL^T315I (Thermo Fisher, Cat. No. PR7429B), ATP (Sigma, Cat. No. A7699-1G), DMSO (Sigma, Cat. No. D2650), 96-well plate (Corning, Cat. No. 3365), 384-well plate (Greiner, Cat. No. 784076), buffer solution (Thermo Fisher, Cat. No. PR4876B).
(§2) Compound formulation: The test compounds were dissolved in DMSO to prepare a 20 mM stock solution. Before use, the compounds were diluted in DMSO to 0.1 mM, and diluted into 11 concentrations with a 3-fold gradient. When addition, diluentions of 4-fold final concentration were then made with buffer solution.
(§3) Kinase assay method: After preparing the buffer, the enzyme was mixed with pre-formulated and diluted compounds of different concentrations in duplicate for each concentration, and placed at room temperature for 30 minutes. The corresponding substrate and ATP were added thereto, and reacted at room temperature for 60 minutes (both a negative and a positive control were set). After the reaction, antibody was added for detection, Envision detection was carried out after 60 minutes incubation at room temperature, and data was collected. Data analysis and fitting were made according to XLfit5 software, wherein, A represents IC50≤5 nM, B represents IC50 is 5-50 nM, C represents IC50 is 50-100 nM, D represents IC50>100 nM.

ABL^T315I = ABL^T315I (Homo sapiens (Human), UniProt P00519, T315I); test: Biochemical kinase analysis, ABL T315I
Method: as §1, §2, §3

Ba/F3 parental cells = test: Cell proliferation analysis, Ba/F3 parental; type: cell-based; conditions: Mus musculus, BaF3, 72 h; 8 ng/ml IL-3, 3 days, CellTiter-Glo
Method: (§4) The inhibitory effect of the example compounds on Ba/F3, Ba/F3 Bcr-Abl T315I cell activity was determined.
(§5) Materials and reagents: RPMI-1640 medium (GIBCO, Catalog No. A10491-01), fetal bovine serum (GIBCO, Catalog No. 10099141), antibiotics (Penicillin-Streptomycin), IL-3 (PeproTech), promycin; cell lines: Ba/F3, Ba/F3 Bcr-Abl T315I (Purchased from American type culture collection, ATCC), live cell detection kit […] (Promega, Catalog No. G7572), 96-well black wall transparent flat bottom cell culture plate (Corning, Catalog No. 3340).
(§6) Test method: 1. Preparation of cell plate: Ba/F3, Ba/F3 Bcr-Abl T315I cells were respectively seeded in 96-well plates, and 8 ng/ml IL-3 was added to the Ba/F3 cells, and the cell plates were placed in a carbon dioxide incubator and cultured overnight. 2. The test compounds were dissolved in DMSO, 9 compound concentrations were made with a 3.16-fold gradient dilution in triplicate. 3. Treatment of the cells with compounds: The compounds were transferred to the cell plate with a starting concentration of 10 μM. The cell plate was placed in a carbon dioxide incubator for 3 days. 4. Detection: CellTiter-Glo agent was added to the cell plate, and incubated at room temperature for 30 minutes to stabilize the luminous signal. PerkinElmer Envision multi-label analyzer was used for reading, wherein A represents […], B represents IC50 is 10-20 nM, C represents IC50 is 20-50 nM, D represents IC50 is 50-1000 nM, E represents IC50>1000 nM.

[1] = test system: Ba/F3 Bcr-Abl T315I cells; test: Cell proliferation analysis, Ba/F3 Bcr-Abl T315I; type: cell-based; conditions: for IC50: Mus musculus, BaF3, 72 h, 3 days, CellTiter-Glo; for Selectivity [Ba/F3 (parental/Bcr-Abl ^T315I)]: ratio of Ba/F3 parental to Ba/F3 Bcr-Abl T315I
Method: as §4, §5, §6

| SMILES | IC50 (ABL) | IC50 (ABL^T315I) | IC50 [1] | IC50 (Ba/F3 parental cells) | Selectivity [Ba/F3 (parental/Bcr-Abl ^T315I)] [1] |
| --- | --- | --- | --- | --- | --- |
| Cc1ccc(NC(=O)c2ccc(CN3CCN(C)CC3)c(C(F)(F)F)c2)cc1C#Cc1cn(C)c2ncnc(N)c12 [Example 19, N-(3-((4-amino-7-methyl-7H-pyrrolo[2,3-d]pyrimidin-5-yl)ethynyl)-4-methylphenyl)-4-((4-methylpiperazin-1-yl)methyl)-3-(trifluoromethyl)benzamide] | ≤ 5 nM | ≤ 5 nM | ≤ 10 nM | > 1000 nM | 150~500 |
| CCn1cc(C#Cc2cc(C(=O)Nc3cc(-n4cnc(C)c4)cc(C(F)(F)F)c3)ccc2C)c2c(N)ncnc21 [Example 10, 3-((4-amino-7-ethyl-7H-pyrrolo[2,3-d]pyrimidin-5-yl)ethynyl)-4-methyl-N-(3-(4-methyl-1H-imidazol-1-yl)-5-(trifluoromethyl)phenyl)benzamide] | 5 to 50 nM | 5 to 50 nM | 10 to 20 nM | > 1000 nM | 150~500 |
| Cc1ccc(C(=O)Nc2ccc(CN3CCN(C)CC3)c(C(F)(F)F)c2)cc1C#Cc1nc(C(C)C)n2ccnc(N)c12 [Example 4, 3-((8-amino-3-isopropylimidazo[1,5-a]pyrazin-1-yl)ethynyl)-4-methyl-N-(4-((4-methylpiperazin-1-yl)methyl)-3-(trifluoromethyl)phenyl)benzamide] | ≤ 5 nM | ≤ 5 nM | 50 to 1000 nM | > 1000 nM | 0~50 |
| Cc1ccc(C(=O)Nc2ccc(CN3CCN(C)CC3)c(C(F)(F)F)c2)cc1C#Cc1cn(C)c2ncnc(N)c12 [Example 16, 3-((4-amino-7-methyl-7H-pyrrolo[2,3-d]pyrimidin-5-yl)ethynyl)-4-methyl-N-(4-((4-methylpiperazin-1-yl)methyl)-3-(trifluoromethyl)phenyl)benzamide] | ≤ 5 nM | ≤ 5 nM | ≤ 10 nM | > 1000 nM | 150~500 |
| Cc1ccc(NC(=O)c2ccc(C)c(C(F)(F)F)c2)cc1C#Cc1cn(C2CCCC2)c2ncnc(N)c12 [Example 20, N-(3-((4-amino-7-cyclopentyl-7H-pyrrolo[2,3-d]pyrimidin-5-yl)ethynyl)-4-methylphenyl)-4-methyl-3-(trifluoromethyl)benzamide] | 5 to 50 nM | 50 to 100 nM | – | – | – |
| Cc1ccc(C(=O)Nc2cccc(C(F)(F)F)c2)cc1C#Cc1cn([C@H]2CC[C@H](O)CC2)c2ncnc(N)c12 [Example 23, 3-((4-amino-7-((1r,4r)-4-hydroxycyclohexyl)-7H-pyrrolo[2,3-d]pyrimidin-5-yl)ethynyl)-4-methyl-N-(3-(trifluoromethyl)phenyl)benzamide] | ≤ 5 nM | 5 to 50 nM | – | – | – |
| Cc1ccc(C(=O)Nc2cccc(C(F)(F)F)c2)cc1C#Cc1cn(C)c2ncnc(N)c12 [Example 14, 3-((4-amino-7-methyl-7H-pyrrolo[2,3-d]pyrimidin-5-yl)ethynyl)-4-methyl-N-(3-(trifluoromethyl)phenyl)benzamide] | ≤ 5 nM | ≤ 5 nM | 20 to 50 nM | > 1000 nM | 50~100 |
| CCn1cc(C#Cc2cc(C(=O)Nc3cccc(C(F)(F)F)n3)ccc2C)c2c(N)ncnc21 [Example 7, 3-((4-amino-7-ethyl-7H-pyrrolo[2,3-d]pyrimidin-5-yl)ethynyl)-4-methyl-N-(6-(trifluoromethyl)pyridin-2-yl)benzamide] | ≤ 5 nM | 5 to 50 nM | – | – | – |
| CCn1cc(C#Cc2cccc(C(=O)Nc3cccc(C(F)(F)F)c3)c2)c2c(N)ncnc21 [Example 8, 3-((4-amino-7-ethyl-7H-pyrrolo[2,3-d]pyrimidin-5-yl)ethynyl)-N-(3-(trifluoromethyl)phenyl)benzamide] | ≤ 5 nM | ≤ 5 nM | – | – | – |
| CCn1cc(C#Cc2cc(C(=O)Nc3ccc(CN(C)C)c(C(F)(F)F)c3)ccc2C)c2c(N)ncnc21 [Example 9, 3-((4-amino-7-ethyl-7H-pyrrolo[2,3-d]pyrimidin-5-yl)ethynyl)-N-(4-((dimethylamino)methyl)-3-(trifluoromethyl)phenyl)-4-methylbenzamide] | ≤ 5 nM | ≤ 5 nM | 10 to 20 nM | > 1000 nM | 150~500 |
| CCn1cc(C#Cc2cc(NC(=O)c3cc(-n4cnc(C)c4)cc(C(F)(F)F)c3)ccc2C)c2c(N)ncnc21 [Example 21, N-(3-((4-amino-7-ethyl-7H-pyrrolo[2,3-d]pyrimidin-5-yl)ethynyl)-4-methylphenyl)-3-(4-methyl-1H-imidazol-1-yl)-5-(trifluoromethyl)benzamide] | ≤ 5 nM | 5 to 50 nM | ≤ 10 nM | 50 to 1000 nM | 50~100 |
| Cc1ccc(C(=O)Nc2ccc(CN3CCN(C)CC3)c(C(F)(F)F)c2)cc1C#Cc1nc(C)n2ccnc(N)c12 [Example 3, 3-((8-amino-3-methylimidazo[1,5-a]pyrazin-1-yl)ethynyl)-4-methyl-N-(4-((4-methylpiperazin-1-yl)methyl)-3-(trifluoromethyl)phenyl)benzamide] | ≤ 5 nM | ≤ 5 nM | – | – | – |

Now from value to molecule, other results behind:

| IC50 (ABL) | IC50 (ABL^T315I) | IC50 [1] | SMILES | IC50 (Ba/F3 parental cells) | Selectivity [Ba/F3 (parental/Bcr-Abl ^T315I)] [1] |
| --- | --- | --- | --- | --- | --- |
| 5 to 50 nM | 50 to 100 nM | – | CCc1nc(C#Cc2cc(C(=O)Nc3cccc(C(F)(F)F)c3)ccc2C)c2c(N)nccn12 [Example 2, 3-((8-amino-3-ethylimidazo[1,5-a]pyrazin-1-yl)ethynyl)-4-methyl-N-(3-(trifluoromethyl)phenyl)benzamide] | – | – |
| ≤ 5 nM | 5 to 50 nM | 10 to 20 nM | Cc1cn(-c2cc(NC(=O)c3ccc(C)c(C#Cc4cn(C)c5ncnc(N)c45)c3)cc(C(F)(F)F)c2)cn1 [Example 11, 3-((4-amino-7-methyl-7H-pyrrolo[2,3-d]pyrimidin-5-yl)ethynyl)-4-methyl-N-(3-(4-methyl-1H-imidazol-1-yl)-5-(trifluoromethyl)phenyl)benzamide] | > 1000 nM | >500 |
| ≤ 5 nM | 5 to 50 nM | 10 to 20 nM | Cc1ccc(C(=O)Nc2ccc(C)c(C(F)(F)F)c2)cc1C#Cc1cn([C@H]2CC[C@H](O)CC2)c2ncnc(N)c12 [Example 24, 3-((4-amino-7-((1r,4r)-4-hydroxycyclohexyl)-7H-pyrrolo[2,3-d]pyrimidin-5-yl)ethynyl)-4-methyl-N-(4-methyl-3-(trifluoromethyl)phenyl)benzamide] | > 1000 nM | 150~500 |
| ≤ 5 nM | ≤ 5 nM | 20 to 50 nM | CCc1nc(C#Cc2cc(C(=O)Nc3ccc(CN4CCN(C)CC4)c(C(F)(F)F)c3)ccc2C)c2c(N)nccn12 [Example 1, 3-((8-amino-3-ethylimidazo[1,5-a]pyrazin-1-yl)ethynyl)-4-methyl-N-(4-((4-methylpiperazin-1-yl)methyl)-3-(trifluoromethyl)phenyl)benzamide] | > 1000 nM | 50~100 |
| 5 to 50 nM | 5 to 50 nM | 20 to 50 nM | Cc1ccc(C(=O)Nc2cccc(C(F)(F)F)c2)cc1C#Cc1cn(C(C)C)c2ncnc(N)c12 [Example 13, 3-((4-amino-7-isopropyl-7H-pyrrolo[2,3-d]pyrimidin-5-yl)ethynyl)-4-methyl-N-(3-(trifluoromethyl)phenyl)benzamide] | > 1000 nM | 100~150 |
